We go through one compound from patent US20100287625A1, “VEGF VARIANTS” (UNIVERSITE DE LIEGE, priority 2006, published 2010).

The subject of assay [1] is VEGF111 mRNA. The assay can be described thus: VEGF111 mRNA in blood cells treated ex vivo, RT-PCR. The following applies: blood cells of a healthy donor, 1 μM, 6 and 24 hours. The assay is classed as cell-based, human. Here is the method:
FIG. 8: VEGF111 is expressed in blood cells treated with camptothecin (1 μM) ex vivo. Double arrowhead: internal standard. Vertical arrow indicates amplification products of VEGF111.
Blood was collected from a healthy donor, and cells were collected by centrifugation. Red blood cells were lyzed and the remaining cells were treated or not with camptothecin (1 μM) for 6 and 24 hours. Untreated cells were also investigated directly after collection. Total VEGF mRNA was measured by RT-PCR as described.

The test system of assay [2] is VEGF111 mRNA. The assay can be described thus: Induction of VEGF111 mRNA by genotoxic agents, RT-PCR. The assay is classed as cell-based, human. The method, then: The indicated cells were treated with UV-B or camptothecin (30 mJ or 1 μM, respectively, except otherwise indicated) for 24 hours (except otherwise indicated) and VEGF and VEGF111 mRNA were measured by RT-PCR. (A) Polyacrylamide gel electrophoresis of RT-PCR products of VEGF (upper panel), VEGF111 (middle panel) and 28S rRNA (lower panel). Arrows in upper panel show the amplification product of VEGF111. The drawings on the right represent the exons (not to scale) in the corresponding VEGF isoforms. C: control cells; Cp: camptothecin treatment; M: 50 bp molecular weight marqueurs; R: cells rinsed with red phenol-free medium; UV: UV-B irradiation; -: non template control; arrowheads: RT-PCR products of synthetic RNA added to the test tubes to monitor reaction efficiency. (B to E) Dose-response analysis (B and D) and kinetic of induction (C and E) of VEGF111 mRNA level in MCF7 cells irradiated by UV-B (B and C) or treated with camptothecin (D and E). The expression of VEGF111 is expressed as the percentage of the signal corresponding to its mRNA taking the overall various VEGF isoforms mRNA, as measured in upper panel of (A) as 100%.
The RT-PCR amplifications were performed in an automated system (GeneAmp PCR System 2400 or 9600, Perkin Elmer, Norwalk, Conn.) using the GeneAmp Thermostable rTth Reverse Transcriptase RNA PCR kit (Perkin Elmer), 10 ng of total RNA and the different pairs of primers (5 pmole each, see Table 1). For amplification of VEGF isoforms mRNA and 28S rRNA, a known copy number of an internal standard RNA were included in each sample to monitor the efficiency of the reaction. The RT step (70° C., 15 min.) was followed by a 2 min. incubation at 95° C. for denaturation of RNA/DNA heteroduplexes, PCR amplification and final elongation for 2 min. at 72° C. The conditions for PCR amplification were 94° C. for 15 sec., 66° C. for 20 sec., 72° C. for 10 sec. for 28S rRNA and CD31 mRNA, or 94° C. for 20 sec, 66° C. for 30 sec. and 72° C. for one min for VEGF. RT-PCR products were resolved on 10% polyacrylamide gel and analysed using a Fluor-S MultiImager (BioRad) after staining with gelstar dye (FMC BioProducts, Rockland, Me.). Specific detection of VEGF111 isoform mRNA was performed as follow. mRNA was reverse transcribed using oligodT (Eurogentec, Seraing, Belgium) and Superscript II (Invitrogen) as described by the manufacturer. Reverse transcription (42° C., 50 min.) was followed by denaturation of the enzyme at 70° C. for 15 min. VEGF111 cDNA was amplified by PCR using 40 ng cDNA, the oligos P5 and P6 (Table 1) and Taq polymerase (Takara, Shiga, Japan). The conditions for PCR amplification were 94° C. for 15 sec., 70° C. for 20 sec.,72° C. for 10 sec.

For `CC[C@@]1(O)C(=O)OCc2c1cc1n(c2=O)Cc2cc3ccccc3nc2-1` [Camptothecin], the “VEGF111 mRNA in blood cells” value with VEGF111 mRNA [1] is “expressed”. Also, the “expression of VEGF111” value in the assay with VEGF111 mRNA [2] (1 μM, HaCat cells and MCF7 cells, by 24 hours, level similar to or higher than after UV-irradiation) is “induced”. For the same compound, in the assay with VEGF111 mRNA [2] (MCF7 cells, camptothecin), the “time after which VEGF111 induction reached a plateau” value was 24 h and the “time after which VEGF111 induction was already detected” value is 6 h. Also, the “VEGF111 induction, dose-response” value in the assay with VEGF111 mRNA [2] (MCF7 cells, with the concentration of camptothecin) was “progressively increased”.
